# Where two headings read alike, the source gives them in different places.
# How the values were obtained:
# liver = assay: Prevention of hepatic diseases: microscopic fatty liver grading in rabbits; type: in vivo, rabbit (New Zealand White); settings: for microscopic features of the liver: FIGS. 2A-2E, control: many cells containing excessive fat around the central vein; for fatty liver grade (1+ to 4+): grades 1+(0-25%), 2+(26-50%), 3+(51-75), 4+(76-100%), rabbits, 8 weeks, Control 3.2 ± 0.3
# Method: (§1) 30 three-month-old male New Zealand White rabbits (Yeonam Horticulture and Animal Husbandry College, Korea), each weighing about 2.5 to 2.6 kg, were raised under condition of temperature 20±2° C., relative humidity 55±5%, and photoperiod 12L/12D. The rabbits were divided into 5 groups and 5 groups of rabbits were fed with 5 different diets, i.e., RC4 diet (Oriental Yeast Co., Japan) containing 1% cholesterol (Control group); 1% cholesterol plus 1 mg/kg Lovastatin® (Merck, U.S.A.) (Lovastatin group); 1% cholesterol plus 0.1% 4-hydroxycinnamic acid (4-hydroxycinnamic acid group); 1% cholesterol plus 0.1% 3,4-dihydroxycinnamic acid (3,4-dihydroxycinnamic acid group); and 1% cholesterol plus 0.1% 3,4-dihydroxyhydrocinnamic acid (3,4-dihydroxyhydrocinnamic acid group), respectively. RC4 diet comprises 7.6% moisture, 22.8% crude protein, 2.8% crude fat, 8.8% crude ash, 14.4% crude cellulose and 43.6% soluble nitrogen-free substances. Cinnamic acid derivatives were purchased from Sigma Chemical Co. (St. Louis, Mo.).
# (§2) The rabbits were fed for 8 weeks while being allowed free access to the diets and water.
# [1] = type: in vivo, rabbit (New Zealand White); settings: rabbits, 1% cholesterol diet plus 0.1% derivative or 1 mg/kg Lovastatin, 8 weeks; for HDL/TC: Control 2.5 ± 0.4; for HDL-C (High density lipoprotein-cholesterol): Control 50 ± 11; for TG (Triglyceride): Control 170 ± 30; for TC (Total cholesterol): Control 1995 ± 472
# Method: as §1, §2
# After eight weeks, the rabbits were anesthetized with an intramuscular injection of ketamine (50 mg/kg) in the femoral region and sacrificed. A blood sample was taken from the heart of each rabbit, allowed to stand for 2 hours and centrifuged at 3,000 rpm for 15 minutes and the supernatant serum was separated and stored in a freezer before use.
# The chemical analysis of blood was carried out by employing a blood chemical analyzer (CIBA Corning 550 Express, USA) to determine the changes in GOT, GPT, total cholesterol, HDL-cholesterol and triglyceride levels.
# [2] = Plasma total cholesterol and HDL-cholesterol of rats fed a high-cholesterol diet; type: in vivo, rat (Sprague-Dawley); settings: for HDL-C/TC ratio / HDL-C (HDL-cholesterol) / TC (Total cholesterol): 0.1% in 1% cholesterol diet, six weeks; for HDL-C/TC ratio: Control 28, listed as head is [formula]; for HDL-C (HDL-cholesterol): Control 38 ± 2; for TC (Total cholesterol): Control 135 ± 6; for increase of HDL-C/TC ratio / reduction of total plasma cholesterol level: as compared with control group
# Text: 40 three-week-old white Sprague-Dawley rats (Taihan laboratory animal center, Korea), each weighing about 90 to 110 g, were evenly divided into four dietary groups by a randomized block design. The rats of the four groups were fed with four different high-cholesterol diets, i.e., AIN-76 laboratory animal diet (ICN Biochemicals, Cleveland, Ohio, U.S.A.) containing 1% cholesterol (Control group); 1% cholesterol plus 0.1% 4-hydroxycinnamic acid (4-hydroxycinnamic acid group); 1% cholesterol plus 0.1% 3,4-dihydroxycinnamic acid (3,4-dihydroxycinnamic acid group); and 1% cholesterol plus 0.1% 3,4-dihydroxyhydrocinnamic acid (3,4-dihydroxyhydrocinnamic acid group), respectively.
# The rats were allowed to feed freely on the specified diet together with water for six weeks, the ingestion amount was recorded daily and the rats were weighed every 7 days, and then the record was analyzed.
# The effects of administering cinnamic acid derivatives to rats on the plasma cholesterol and neutral lipid contents were determined as follows.
# The rats of the four dietary groups obtained in Step 1 were sacrificed and blood samples were taken therefrom. The blood was allowed to stand for 2 hours and centrifuged at 3,000 rpm for 15 minutes and the supernatant was separated and stored in a deep freezer before use. The chemical analysis of blood was carried out by employing a blood chemical analyzer (CIBA Corning 550 Express, USA) to determine the changes in total cholesterol and HDL-cholesterol levels.
# ACAT = ACAT assay, liver microsomes of the fed rabbits; type: biochemical, rabbit; settings: rabbits fed 0.1% in 1% cholesterol diet; Control 0
Structure (SMILES),microscopic features of the liver (liver),fatty liver grade (1+ to 4+) (liver),HDL/TC [1],HDL-C (High density lipoprotein-cholesterol) [1],TG (Triglyceride) [1],TC (Total cholesterol) [1],HDL-C/TC ratio [2],HDL-C (HDL-cholesterol) [2],TC (Total cholesterol) [2],increase of HDL-C/TC ratio [2],reduction of total plasma cholesterol level [2],Inhibition on ACAT activity (ACAT)
"O=C(O)/C=C/c1ccc(O)cc1 [4-Hydroxycinnamic acid, 4-hydroxycinnamic acid]",almost all liver cells are of a normal shape,2.7 ± 0.3,3.7 ± 1.3%,57 ± 28 mg/dL,167 ± 43 mg/dL,1517 ± 417 mg/dL,56,57 ± 3 mg/dL,102 ± 6 mg/dL,100%,24%,9%
"O=C(O)CCc1ccc(O)c(O)c1 [3,4-dihydroxyhydrocinnamic acid]",almost all liver cells are of a normal shape,2.6 ± 0.3,6.3 ± 1.6%,80 ± 23 mg/dL,108 ± 22 mg/dL,1256 ± 150 mg/dL,35,45 ± 4 mg/dL,127 ± 4 mg/dL,25%,6%,37%
"O=C(O)/C=C/c1ccc(O)c(O)c1 [3,4-dihydroxycinnamic acid]",almost all liver cells are of a normal shape,2.6 ± 0.3,3.4 ± 0.4%,53 ± 13 mg/dL,139 ± 46 mg/dL,1559 ± 347 mg/dL,33,39 ± 3 mg/dL,118 ± 6 mg/dL,18%,13%,33%

# From US6313171A, “Method for preventing or treating elevated blood lipid level-related diseases by administering cinnamic acid derivatives” (Korea Research Institute of Bioscience & Biotechnology, priority 1998, dated 2001)
